Measured values reported in patent US11001591B2, “TRAF 6 inhibitors” (HELMHOLTZ ZENTRUM MUENCHEN—DEUTSCHES FORSCHUNGSZENTRUM FÜR …, priority 2016, dated 2021).

Assays:
MDM2 = target: T1, MDM2 (Homo sapiens, UniProt Q00987); experiment: In vitro ubiquitination assay, MDM2; format: biochemical; conditions: K48 chain formation
T1 construct: purchased Boston Biochem one of K-102, K-260, K-200B, K-220, K-240, K-270
Experimental: (§1) For analysis of clAP1, MDM2, TRIM63, RNF4, ITCH and E6AP mediated poly-ubiquitination, the respective ubiquitin ligase kit from Boston Biochem (K-102, K-260, K-200B, K-220, K-240 and K-270) was used. Here, reaction buffer, E1, E2 and E3 enzyme (and p53 substrate in case of MDM2) were mixed and pre-incubated with compound or DMSO for 5 minutes at room temperature before adding Mg^2+-ATP and mono-ubiquitin for reaction start. Ubiquitination was visualized by Western Blot analyses.

MURF/TRIM63 = target: T2, MURF/TRIM63 (Homo sapiens, UniProt Q969Q1); experiment: In vitro ubiquitination assay, MURF/TRIM63; format: biochemical; conditions: K48 chain formation
T2 construct: purchased Boston Biochem one of K-102, K-260, K-200B, K-220, K-240, K-270
T2 sequence (Q969Q1 whole entry): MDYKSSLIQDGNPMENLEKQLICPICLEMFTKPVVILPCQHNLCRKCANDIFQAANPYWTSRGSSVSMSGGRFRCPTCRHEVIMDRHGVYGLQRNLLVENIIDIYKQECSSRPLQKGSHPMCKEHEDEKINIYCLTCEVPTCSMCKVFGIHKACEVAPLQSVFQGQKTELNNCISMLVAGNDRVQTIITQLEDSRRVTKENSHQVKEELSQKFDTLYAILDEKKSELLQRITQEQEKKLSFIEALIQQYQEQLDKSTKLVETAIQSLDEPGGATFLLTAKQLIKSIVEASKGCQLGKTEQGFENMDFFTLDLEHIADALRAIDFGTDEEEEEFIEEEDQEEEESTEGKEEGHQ
Experimental: as §1

[1] = test system: TRAF6 auto-ubiquitination; experiment: TRAF6 auto-ubiquitination in Jurkat T-cells; format: cell-based, human; conditions: PMA/Ionomycin
NF-κB = experiment: EMSA NF-κB activation in Jurkat T-cells; format: cell-based, human; conditions: PMA/Ionomycin
Experimental: For compound treatment, MEF cells were seeded in 6 well plates at 1.2×10^5 cells/well the day before treatment. Jurkat T-cells were seeded directly before treatment at 2×10^5 cells/sample. Six hours after compound or DMSO treatment cells were stimulated as indicated. Thereby, MEF cells were left untreated or stimulated with recombinant mouse IL-1β (1 ng/mL) or TNFα (10 ng/mL) for 20 minutes. Jurkat T-cells were stimulated with Phorbol-12-myristat-13-acetet (PMA) (400 ng/mL) and lonomycin (600 ng/mL) for 30 minutes. Eventually, cells were lysed in high-salt lysis buffer (20 mM HEPES pH 7.9; 350 mM NaCl; 1 mM MgCl2; 0.5 mM EDTA; 0.1 mM EGTA; 20% Glycerol; 1% NP-40; 10 mM NaF; 8 mM β-Glycerophosphate; 1 mM DTT; 300 μM Sodium-vanadate; complete protease inhibitor) and analyzed in EMSA assays using H2K (NF-κB) or Oct-1 (loading control) probes.

Plasma stability = format: in vitro ADME
Experimental: (§2) All ADME (plasma stability, plasma protein binding, microsomal stability, Log D, Caco-2 assay, CYP450 inhibition and hERG predictor assay) as well as pharmacokinetic studies (Tmax, Cmax, AUC0-240 min, Mean Residence Time, Elimination half life, Elimination rate constant, Volume of Distribution and Clearance) of C25-140 (compound 3) were conducted by Bienta Enamine Biology Services of Bienta/Enamine Ltd.

Microsomal stability = format: in vitro ADME
Experimental: as §2

CYP450 = CYP450 inhibition; format: in vitro ADME
Experimental: as §2

[2] = test system: Diet-Induced-Obesity (DIO) mice; experiment: Diet-Induced-Obesity (DIO) mouse study; format: in vivo; conditions: 7.4 mg/kg IP once daily
Experimental: For MEF cells, 1.2×10^5 cells per sample were seeded, treated with compound for 6 hours and stimulated with either IL-1β or TNFα for 60 minutes. Jurkat T-cells and primary mouse CD4^+ T-cells were seeded at 2×10^5 cells per sample, also treated with compound for 6 hours and stimulated with PMA/lonomycin for 3 hours. RNA was isolated according to the manufacturer's protocol of the Qiagen RNeasy Kit (MEF cells) or the STRATEC INVITRAP® SPIN UNIVERSAL RNA MINI KIT (Jurkat T-cells). The isolation of mRNA from […] white adipose tissue from DIO mice was performed using TRIzol® Reagent according to manufacturer's instruction. To clear the isolated RNA from genomic DNA, samples (up to 5 μg RNA) were treated with RQ1 RNase-Free DNaseI (Promega) as described in the technical manual. For the reverse transcription of RNA into cDNA, the DNaseI digested RNA samples were processed using the SuperScript III First Strand cDNA Synthesis System (Invitrogen/ThermoFisher Scientific) following the manufacturer's protocol. Thereby, random hexamers provided with the kit were used for reverse transcription. cDNA samples were stored at −20° C. For quantification of cDNA in the samples, the LightCylcer480 (Roche) and the KAPA SYBR FAST qPCR Kit were used. For relative quantification, the ΔΔCp method first described by Pfaffl (Pfaffl, M. W., A new mathematical model for relative quantification in real-time RT-PCR. Nucleic Acids Res, 2001. 29(9): p. e45) was applied. The following primer were used for qRT-PCR:
Mice were fed a high-fat-diet until they reached a body weight of at least 40 g and developed […]. These mice were separated in control group and a group for C25-140 (compound 3) injection. Mice were treated every day with 14 μmol/kg (=7.4 mg/kg) C25-140 intraperitoneally for a period of 20 days. Thereby, C25-140 was dissolved in 2.9% DMSO, 1.5% Tween-80 and 1×PBS. Every day before injection, the body weight and food intake were measured. […]

BJAB (GCB DLBCL) = experiment: Cell viability in DLBCL, BJAB; format: cell-based; conditions: 30 μM added at day 0, 4 and 8; 9 days
Experimental: To determine the effects of C25-140 on MYD88-dependent ABC-DLBCL, we chose the HBL1 (ABC-DLBCL-MYD88 L265P), U2932 (ABC DLBCL-MYD88 wt) and BJAB (GCB DLBCL) cell lines. 1×10^6 cells of each cell line was seeded in 5 ml and treated with 30 μM compound C25-140 (compound 3) or DMSO. The entire experiment was carried out for 9 days. Every day 500 μl were taken and viable cell number was acquired using the ViCEII cell counter (Beckmann Coulter). At days 4 and 8 of the experiment the volume was again adjusted to 5 ml and samples were supplemented with 30 μM compound C25-140 or DMSO. This process was necessary to ensure linear proliferation of DMSO treated cells. All curves of C25-140 treated samples were referred to the corresponding DMSO treated controls.

T1 sequence (Q00987 whole entry): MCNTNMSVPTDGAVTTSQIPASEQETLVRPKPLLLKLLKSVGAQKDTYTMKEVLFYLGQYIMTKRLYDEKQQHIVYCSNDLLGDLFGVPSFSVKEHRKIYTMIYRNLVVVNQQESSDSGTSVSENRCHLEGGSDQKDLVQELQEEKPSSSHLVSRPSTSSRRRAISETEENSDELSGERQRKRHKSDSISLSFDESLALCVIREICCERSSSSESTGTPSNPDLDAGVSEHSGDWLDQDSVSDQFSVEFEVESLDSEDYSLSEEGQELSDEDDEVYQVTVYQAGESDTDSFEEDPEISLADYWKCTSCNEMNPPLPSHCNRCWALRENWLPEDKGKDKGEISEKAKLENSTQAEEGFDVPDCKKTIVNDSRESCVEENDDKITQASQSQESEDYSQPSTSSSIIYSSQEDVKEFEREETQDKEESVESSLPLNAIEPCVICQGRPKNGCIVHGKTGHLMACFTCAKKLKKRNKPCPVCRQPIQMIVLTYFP

In the case of `Cc1nn(-c2ccc3nnc(C)n3n2)c(C)c1CCC(=O)N1CCC(Cc2ccccc2)CC1` [Compound 3, 1-(4-benzylpiperidin-1-yl)-3-(3,5-dimethyl-1-(3-methyl-[1,2,4]triazolo[4,3-b]pyridazin-6-yl)-1H-pyrazol-4-yl)propan-1-one], the “p53 ubiquitination by MDM2” value (MDM2) is reported as “not affected”, the “S5A ubiquitination by MURF/TRIM63” value (MURF/TRIM63) is reported as “not affected” and the “TRAF6 auto-ubiquitination upon TCR stimulation” value [1] is reported as “dose-dependently reduced”. For the same molecule, the NF-κB activation (NF-κB) was “attenuated”, the plasma stability (Plasma stability) was “stable” and the microsomal stability (Microsomal stability) was “stable”. The CYP450 inhibition (CYP450) was “some inhibitory potential on selected CYPs”, the “body weight gain under high-fat-diet” value ([2]; 20 days) was “hardly increased body weight” and the food intake ([2]; 20 days, vs vehicle) was “did not differ”. For the same molecule, the “IL-1β and VCAM mRNA in adipose tissue” value ([2]; day 20) was “significantly reduced” and the “viability (cell count)” value (BJAB (GCB DLBCL)) was “did not show any difference”.
